{Fluor} = fluorophore: 5-carboxyfluorescein (FAM) or Alexa Fluor 488
Experiments:
Assay type in all cases: cell-based
DU145 cells [1] = assay: Confocal microscopy localization and co-localization
Experimental: FIG. 3 are photographs showing that AS1411 co-localizes with the macropinocytic marker, dextran. DU145 or Hs27 cells were incubated with the reagents indicated, then washed and fixed. Nuclei were stained with DAPI (blue). The distribution of markers was visualized by confocal microscopy and fluorescent images were overlaid to determine co-localization as indicated by the yellow color. (Panel A) 10 μM AS1411 labeled with Alexa Fluor 488 (green) and 0.2 mg/ml dextran-10K, macropinocytic marker, labeled with Alexa Fluor 594 (red) for 2 h at 37° C. (Panel B) Experiments similar to those in Panel A but using FL-CRO in place of FL-AS1411. (Panel C) Cells incubated with 5 μg/ml transferrin labeled with Alexa Fluor 488 (green) and 0.2 mg/ml dextran-10K labeled with Alexa Fluor 594 (red) for 30 min at 37° C. (Panel D) DU145 cells incubated with 5 μg/ml transferrin labeled with Alexa Fluor 594 (red) and 10 μM AS1411 labeled with Alexa Fluor 488 (green) for 30 min at 37° C. Scale bars, 10 μm.
Cells (4×10^4) in fresh supplemented culture medium were plated on 18 mm diameter glass cover slips for 18 h. The media was removed and replaced with serum-free medium containing 10 μM oligodeoxynucleotide, dextran-10K, or transferrin and incubated as describe in the Description of the Drawings. After incubation, cells were washed 3 times with ice-cold PBS, fixed in 4% paraformaldehyde in PBS for 30 min at room temperature, and washed three times with PBS. After washing, the cover slips were mounted on glass slides with ProLong Antifade (Molecular Probes) according to the manufacturer's directions to inhibit photobleaching. Immunofluorescence was documented with an LSM 510 inverted confocal laser-scanning microscope (Carl Zeiss, Oberkochen, Germany) equipped with an Omnichrome argon-krypton laser. Images were obtained with a Zeiss Plan-Apo 63× oil immersion objective (1.4 NA).

DU145 cells [2] = assay: Uptake of fluorophore-labeled oligonucleotides by flow cytometry
Experimental: FIG. 1 are graphs showing that AS1411 cell internalization is an active process. Cells were plated 18 h before uptake analysis. After incubation as described, cells were washed with ice-cold PBS, incubated with 1 μg/ml 7-AAD, harvested and resuspended in 1% paraformaldehyde containing 2 μg/ml actinomycin D, then analyzed by flow cytometry. (Panel A) DU145 cells were incubated at 37° C. with fresh complete DMEM medium containing 10 μM FL-AS1411 (black line) or 10 μM FL-CRO (gray line) for the time indicated. (Panel B) DU145 cells were incubated for 2 h at 37° C. in complete or serum-free DMEM medium containing 10 μM FL-AS1411, or 10 μM FL-CRO, or no oligonucleotide. (Panel C) Various cell lines were incubated with 10 μM FL-AS1411 (black outline histogram), 10 μM FL-CRO (gray outline histogram) or without DNA (solid gray histogram) at 37° C. or 4° C. for 2 h. All experiments were repeated at least three times. Data are mean of three independent samples; bars, SE; *(p<0.05).
FIG. 2 are graphs showing that AS1411 is internalized by different endocytic mechanisms in DU145 cancer cells and in non-malignant Hs27 cells. DU145 or Hs27 cells were plated 18 h before uptake analysis. Cells were pre-treated as described with inhibitor (gray histogram) or the corresponding vehicle control (black histogram) before addition of 10 μM FL-AS1411 and incubation at 37° C. for 2 h. After incubation, cells were harvested and analyzed by flow cytometry. Pre-treatment conditions were at 37° C. with: (Panel A) 5 μM Cytochalasin D for 30 min; (Panel B) 80 μM Dynasore for 30 min; or (Panel C) 3 mM amiloride for 1 h. All experiments were repeated at least three times and representative data are shown. Solid gray histograms represent background autofluorescence of unstained cells.
DU145 cells were transfected for 48 h without siRNA (mock, M), or with 30 nM of one of three different nucleolin siRNAs (NCL1, NCL2, NCL3) or a control siRNA (scramble, S), or contransfected with 10 nM of each nucleolin siRNAs (mix). (Panel A) Cells were lysed and total cell lyses were analyzed by Western blotting using the antibodies shown. (Panel B) Cell-surface proteins from intact transfected DU145 cells were labeled covalently with membrane-impermeable biotinylating agent. Cells were lysed, then biotinylated plasma membrane proteins were captured with streptavidin-agarose beads and analyzed by blotting with anti-nucleolin antibody (upper panel). After stripping, the membrane was reprobed with antibodies for a plasma membrane marker (anti-pan Cadherin) and a nuclear marker (anti-histone 3) to confirm the fractionation. Total lysate (Lys) was used as control. (Panel C) The medium of transfected cells was replaced by fresh complete DMEM medium containing no oligonucleotide (gray dashed histogram) or 10 μM FL-CRO (gray solid line histogram) or 10 μM FL-AS1411 (black solid line histogram) and incubated at 37° C. for 2 h. After incubation, cells were harvested and analyzed by flow cytometry.
DU145 cells were plated 18 hr before uptake analysis. Cell medium was changed with fresh complete DMEM medium containing different concentrations of FL-AS1411 (black line) or FL-CRO (gray line), and incubated at 37° C. for 2 hrs. After incubation, cells were harvested and analyzed by flow cytometry.
FIG. 9 are graphs showing the effects of inhibitors on various endocytic pathways. DU145 or Hs27 cells were plated 18 hr before uptake analysis. (Panel A) DU145 cells were pre-treated with dynamin inhibitor, […] Dynasore (black histogram) or DMSO (gray histogram) for 30 min at 37° C. After pre-treatment, cells were treated with […] transferrin conjugated with Alexa Fluor 488 for 30 min at 37° C. (Panel B) DU145 and Hs27 cells were pre-treated with 3 mM amiloride (black histogram) or vehicle (serum-free medium, gray histogram) for 1 h at 37° C. After pre-treatment, FL-CRO was added at a concentration of 10 μM and incubated at 37° C. for 2 h. After incubation, cells were harvested and analyzed by FACS. […]

U937 leukemia cells = assay: Cell death mechanism (DNA laddering, immunoblotting, electron microscopy)
Experimental: (A) Trypan blue staining of U937 leukemia cells showing percentage of dead cells (trypan blue positive) over time. (B) U937 cells were untreated (Un) or treated with 1 μM AS1411 (1411) or control oligonucleotide (Ctrl) for 72 h. DNA was extracted, electrophoresed on an agarose gel and stained with ethidium bromide to probe DNA laddering. As a positive control, […] were treated with UV irradiation to induce apoptosis as previously described. […] (D) U937 cells treated as described for panel B, followed by protein extraction and immunoblotting (IB) to detect PARP cleavage and Caspase-3 activation. (E) DU145 prostate cancer cells were incubated with 10 μM of AS1411 for 24 h, or irradiated with UV (300 J/m^2 with UV Stratalinker 2400, Strategene), then cultured in fresh medium for 6 h. Assessment of cell death was carried out by flow cytometry to detect Annexin V-FITC binding and PI staining.

Row | Substance | uptake compared with FL-AS1411 (confocal microscopy) (DU145 cells [1]; 10 μM, 2 h) | uptake compared with FL-AS1411 (DU145 cells [2]; 10 μM, 37° C., time course) | co-localization with transferrin (DU145 cells [1]; 5 μg/ml transferrin, 10 μM AS1411 labeled with Alexa Fluor 488, 30 min at 37° C.) | saturability of uptake (dose-response) (DU145 cells [2]; 37° C. for 2 hrs) | effect on DNA replication and cell division (U937 leukemia cells) | effect on protein synthesis (U937 leukemia cells) | induction of apoptosis markers (U937 leukemia cells; 1 μM, 72 h, UV irradiation as positive control) | cell death morphology in electron micrographs (U937 leukemia cells; 72 h)
1 | 5′-Fluor-d(TTTCCTCCTCCTCCTTCTCCTCCTCCTCC) (DNA TTTCCTCCTCCTCCTTCTCCTCCTCCTCC; DNA, 5' {Fluor}, backbone and methylation of C not given here) [FL-CRO, reference compound] | much lower than FL-AS1411 | consistently much lower than FL-AS1411 |  |  |  |  |  | 
2 | 5′-d(GGTGGTGGTGGTTGTGGTGGTGGTGG) [AS1411] |  |  | non-overlapping vesicles | did not appear to have saturable uptake | inhibited DNA replication and cell division | not inhibited | does not induce DNA laddering, PARP cleavage, or Caspase-3 activation | necrosis-like cell death

From patent publication US20130065227A1, “METHODS OF INCREASING MACROPINOCYTOSIS IN CANCER CELLS” (priority 2010, published 2013)
